According to patent EP0143016A1, “Derivatives of 4-(3-alkynyloxy-2-hydroxy-propyl)-piperazin-1-yl-N-phenyl acetamide, their preparation and their therapeutical use” (RIOM LABORATOIRES- C.E.R.M. "R.L.-CERM" - (S.A.), priority 1983, dated 1985):

What was measured:
[1] = tested on: effets chronotropes positifs de l'isoprénaline; assay: Antitachycardic action in the anesthetized dog: inhibition of the positive chronotropic effects of isoprenaline; assay type: in vivo, chien; details: duration of action (durée d'action), unit not given; isoprenaline tachycardia; dog anesthetized with chloralose; 5 mg.kg^-1 I.V.
Description: (§1) L'activité anti-angineuse des composés de l'invention a été étudiée chez l'animal en recherchant leurs effets hémodynamiques sur le chien anesthésié, conformément au protocole résumé ci-après.
(§2) Chez le chien anesthésié au chloralose (100 mg.kg^-1 I.V.), les paramètres suivants sont enregistrés : • - fréquence cardiaque à l'aide d'électrodes à E C G sous-cutanée reliées à un cardiotachymètre BECKMAN (dérivation D II) • - débit artériel coronaire enregistré par l'intermédiaire d'un débitmètre électromagnétique STATHAN® • - on étudie aussi l'action antitachycardisante en mesurant son activité inhibitrice des effets chronotropes positifs de l'isoprénaline.
(§3) Les différents paramètres sont enregistrés en continu sur un dynographe BECKMAN®, et on mesure en même temps la durée d'action.
(§4) Les composés de l'invention sont administrés par voie I.V. à la dose de 5 mg.kg^-1.
(§5) Les résultats enregistrés, exprimés sous forme de pourcentage de variation, sont résumés dans le tableau I ci-après.

chien anesthésié [2] = assay: Hemodynamic effects in the anesthetized dog: coronary arterial flow; assay type: in vivo; details: duration of action (durée d'action), unit not given; dog anesthetized with chloralose; 5 mg.kg^-1 I.V.
Description: as §1, §2, §3, §4, §5

chien anesthésié [3] = assay: Hemodynamic effects in the anesthetized dog: heart rate; assay type: in vivo; details: duration of action (durée d'action), unit not given; dog anesthetized with chloralose; 5 mg.kg^-1 I.V.
Description: as §1, §2, §3, §4, §5

SMILES | ANTITACHY-CARDIE D [1] | DEBIT CORONAIRE D (chien anesthésié [2]) | FREQUENCE CARDIAQUE D (chien anesthésié [3])
C#CC(C)(OCC(O)CN1CCN(CC(=O)N(C)c2ccc(Cl)cc2C(=O)c2ccccc2)CC1)c1ccccc1 (stereo not drawn) [compound 10] | 15 | 0,5 | 15
C#CC1(OCC(O)CN2CCN(CC(=O)Nc3ccc(Cl)cc3C(=O)c3ccccc3Cl)CC2)CCCCC1 (stereo not drawn) [compound 4, 4-[3-(1-ethynyl-cyclohexyloxy)-2-hydroxy-propyl]-piperazin-1-yl-N-[4-chloro-2-(2-chlorobenzoyl)-phenyl] acetamide] | 35 | 1 | >15
C#CC1(OCC(O)CN2CCN(CC(=O)N(C)c3ccc(Cl)cc3C(=O)c3ccccc3)CC2)CCCCC1 (stereo not drawn) [compound 7] | 5 | 2 | >15
C#CC(C)(OCC(O)CN1CCN(CC(=O)Nc2ccc(Cl)cc2C(=O)c2ccccc2Cl)CC1)c1ccccc1 (stereo not drawn) [compound 6, 4-[3-(α-ethynyl-α-methyl-benzyloxy)-2-hydroxy-propyl]-piperazin-1-yl-N-[2-(2-chlorobenzoyl)-4-chloro-phenyl]acetamide] | 15 | 3 | >45
CC#CC1(OCC(O)CN2CCN(CC(=O)N(C)c3ccc(Cl)cc3C(=O)c3ccccc3)CC2)CCCCC1 (stereo not drawn) [compound 2] | 60 | 3 | 60
CC#CC1(OCC(O)CN2CCN(CC(=O)Nc3ccc(Cl)cc3C(=O)c3ccccc3Cl)CC2)CCCCC1 (stereo not drawn) [compound 9] | 5 | 2 | 5
